From the OPERA property sets (Mansouri et al. 2018)

Conditions: for log10 BCF / log10 biotransformation half-life (days): fish

SMILES	melting point [°C]	boiling point [°C]	further results
CCOC(=O)N1C(=O)c2ccccc2C1=O	91	–	–
S=C(NC1CCCCC1)NC1CCCCC1	–	–	ready biodegradability: not readily biodegradable; log10 BCF: 0.64
CC(C)(S)[C@@H](N)C(=O)O	198	–	–
Cc1cc(Cl)ccc1N	30.3	244	ready biodegradability: not readily biodegradable; log10 BCF: 1.54
CC(=O)NC(N)=S	165	–	–
CC1CCS1 (stereo not given)	–	107	–
O=CN(O)CC(=O)O	120	–	–
C1CCCC1	-93.8	49.3	log10 Henry constant (atm·m³/mol): -0.818; log10 biodegradation half-life (days): 1.7; log10 vapour pressure (mmHg): 2.5
C=CCN1CCCC1CNC(=O)c1cc(S(=O)(=O)NC)c(N)cc1OC (stereo not given)	169	–	–
O=C1c2ccccc2C(=O)C1C(=O)C(c1ccccc1)c1ccccc1	146	–	log10 vapour pressure (mmHg): -9.99
c1ccc(CNCCNCc2ccccc2)cc1	26	–	–
CC1(C)[C@H](/C=C(\Cl)C(F)(F)F)[C@@H]1C(=O)O[C@H](C#N)c1cccc(Oc2ccccc2)c1	–	–	log10 Koc (L/kg): 5.26; log10 vapour pressure (mmHg): -8.47
CC1=CC=CC1	–	72.8	log10 vapour pressure (mmHg): 2.09
CC(Cl)CCCl (stereo not given)	–	134	–
C/C=C/c1cc2c(c(=O)o1)C(=O)[C@@H](O)[C@H](C)O2	222	–	–
c1ccc(-c2ccncc2)nc1	61.5	281	–
COP1(=S)OCc2ccccc2O1 (stereo not given)	–	–	ready biodegradability: not readily biodegradable; log10 BCF: 1.31; log10 biotransformation half-life (days): -1.15
CCC(CO)(CO)CO	–	–	ready biodegradability: not readily biodegradable
CCCC(C)(C)CC	-126	112	log10 biodegradation half-life (days): 0.699; log10 vapour pressure (mmHg): 1.46
Oc1ccc2ncccc2c1	195	360	–
CCOC(=O)c1cccc([N+](=O)[O-])c1	47	297	–
CN(C)CCN(Cc1cccs1)c1ccccn1	–	–	log10 Koc (L/kg): 2.87

SMILES	melting point [°C]	boiling point [°C]	further results
N#C/C=C(\Cl)C#N	60.5	172	–
CCOC(=O)[C@H](C)Cl	–	147	log10 vapour pressure (mmHg): 0.557
C/C(=N\O)C(=O)c1ccccc1	114	–	–
C=CCOc1nc(OCC=C)nc(OCC=C)n1	27	–	–
O=Cc1c(O)ccc2ccccc12	83	–	ready biodegradability: readily biodegradable
C/C=C(/C)C(=O)O[C@H]1CCN2CC=C(COC(=O)[C@](O)([C@H](C)OC)C(C)(C)O)[C@H]12	95	–	–
O=C(O)C1(O)c2ccccc2-c2ccc(Cl)cc21 (stereo not given)	152	–	–
CCCCCCCCCC(C)C=O (stereo not given)	–	171	–
CCN(CC)C(=S)SSC(=S)N(CC)CC	71.5	–	–
COCCN	–	95	–
CC1=CCC2CC1C2(C)C (stereo not given)	–	–	log10 Henry constant (atm·m³/mol): -0.873; log10 vapour pressure (mmHg): 0.677; ready biodegradability: readily biodegradable
C=C(C)C(=O)OCCOCCOC(=O)C(=C)C	–	–	ready biodegradability: readily biodegradable
FC(F)(F)C(F)(I)C(F)(F)F	–	40	–
O=C(O)c1cc2ccccc2o1	192	312	–
COCCN(C(=O)CCl)c1c(C)cccc1C	46	320	log10 vapour pressure (mmHg): -4.95
CCCSCCC	-102	143	log10 Henry constant (atm·m³/mol): -2.49; log10 vapour pressure (mmHg): 0.81
O=C(O)CC(O)(CC(=O)O)C(=O)O	153	–	log10 vapour pressure (mmHg): -7.78; ready biodegradability: readily biodegradable
CCCCCCCCCCCCCCCCCCCCCCCCCCCCCCCCC	72	–	log10 biodegradation half-life (days): 2.56; log10 vapour pressure (mmHg): -10.4
CCCCCCCCCC[C@H](O)CC	32	–	–
O=[PH](O)c1ccccc1	84	–	log10 BCF: 0.78
C=CCCCCl	–	105	–
CCCOC(OCCC)OCCC	–	191	–

SMILES	melting point [°C]	boiling point [°C]	further results
COc1ccccc1NC(=O)CC(C)=O	86	–	–
CCCC(C)OC(C)=O (stereo not given)	-100	130	–
COC(=O)CCC(C)=O	–	196	–
C=Cc1scnc1C	-15	–	–
C#CCCCO	–	154	–
C=CCNC(N)=O	85	–	–
CC(C)(C)Br	-16.2	73.3	log10 vapour pressure (mmHg): 2.13
CCCCP(=O)(CCCC)CCCC	64	–	–
Nc1cccc(I)c1	33	–	–
O=C(O)CBr	50	208	log10 Henry constant (atm·m³/mol): -8.19; log10 vapour pressure (mmHg): -0.926
O=C(O)C=Cc1ccc(O)cc1	–	–	ready biodegradability: readily biodegradable
Cc1cc(OC(=O)N(C)C)nn1C(=O)N(C)C	69.5	–	log10 vapour pressure (mmHg): -4.01
CC[C@H](C)CC=O	–	121	–
CCC(C)(O)CCC(C)C (stereo not given)	–	173	–
Cc1cc(C)cc(CO)c1	–	220	–
CNC(C)Cc1ccc(O)cc1 (stereo not given)	161	–	–
CC(O)(CCO)CCO	–	–	ready biodegradability: not readily biodegradable
Clc1cc2ccccc2c(Cl)c1Cl	–	–	log10 Koa: 7.66; log10 vapour pressure (mmHg): -4.7
OC[C@@H](O)[C@H](O)[C@@H](O)CO	98.8	–	ready biodegradability: readily biodegradable
CCCC(C)CC (stereo not given)	-119	91	log10 biodegradation half-life (days): 0.954; log10 vapour pressure (mmHg): 1.79
CC1CCCCS1 (stereo not given)	-58	153	–
S=C(SC(=S)N1CCCCC1)N1CCCCC1	110	–	–

SMILES	melting point [°C]	boiling point [°C]	further results
O=CN1CCOCC1	21	239	–
Cc1cccc(C(N)=O)c1	95	–	–
CN1CCC(N(Cc2ccccc2)c2ccccc2)CC1	115	–	–
CCC#CCCC	-130	107	–
Clc1ccc(Cl)c(-c2ccc(Cl)c(Cl)c2)c1	106	–	log10 Henry constant (atm·m³/mol): -4; log10 Koc (L/kg): 4.86; log10 vapour pressure (mmHg): -4.39; log10 BCF: 5.08; log10 biotransformation half-life (days): 2.65
CCCCCC=CCC=CCCCCCCCC(=O)O	–	–	ready biodegradability: readily biodegradable
C#CC=O	–	60	–
Clc1cc(Cl)c(Cl)c(-c2cccc(Cl)c2Cl)c1	–	–	log10 biotransformation half-life (days): 2.44
CCC=CCCO	–	156	–
CC(C(=O)O)c1ccc(N2Cc3ccccc3C2=O)cc1 (stereo not given)	214	–	–
COc1ccc(C2C(=O)c3ccccc3C2=O)cc1	156	–	–
C[C@]12CC[C@H]3[C@@H](CCC4=CC(=O)CC[C@@]43C)[C@@H]1CC[C@@H]2OC(=O)CCC1CCCC1	155	–	–
C=C(C)C(=O)OCC(CC)CCCC (stereo not given)	–	–	ready biodegradability: readily biodegradable
CCCCCCCCCCCCCCCCCCCC(=O)OCC	50	–	log10 vapour pressure (mmHg): -7.72
CCC(C)(CC)C(C)C	–	145	–
O=[N+]([O-])c1c(F)c(F)c(F)c(F)c1F	–	160	–
C=C1CC2CC1CC2(C)C (stereo not given)	–	152	–
OCC(F)(F)C(F)F	-15	110	log10 Henry constant (atm·m³/mol): -5.2; log10 vapour pressure (mmHg): 1.17
NC=O	2.55	220	log10 vapour pressure (mmHg): -1.21; ready biodegradability: readily biodegradable
Nc1ccnc(N)c1	107	–	–
Oc1c(F)c(F)cc(F)c1F	38	140	–
